Test results reported in patent US7776862B2, “Pyridyl and phenyl substituted piperazine-piperidines with CXCR3 antagonist activity” (Schering Corporation, priority 2005, dated 2010).

molecular target: T1, human CXCR3 (N-delta 4) (Homo sapiens, UniProt P49682); experiment: Human CXCR3 (N-delta 4) scintillation proximity assay (SPA), [125I] IP-10 binding; details: IC50 rating; Ba/F3-hCXCR3 (N-delta 4) membranes, 25 pM [125I] IP-10
T1 construct: CD8 leader; Flag tag; expressed in transfected cells; membranes used
T1 sequence (P49682 5-368 limits assumed): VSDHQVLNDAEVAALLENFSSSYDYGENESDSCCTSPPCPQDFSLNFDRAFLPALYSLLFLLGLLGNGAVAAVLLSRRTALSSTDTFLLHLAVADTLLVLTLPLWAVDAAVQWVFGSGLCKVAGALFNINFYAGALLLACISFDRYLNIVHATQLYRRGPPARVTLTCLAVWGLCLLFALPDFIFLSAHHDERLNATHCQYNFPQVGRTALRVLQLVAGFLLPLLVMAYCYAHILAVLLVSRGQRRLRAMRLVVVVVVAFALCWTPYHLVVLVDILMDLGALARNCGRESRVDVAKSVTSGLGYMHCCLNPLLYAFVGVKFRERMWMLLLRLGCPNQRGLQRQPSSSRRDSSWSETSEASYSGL
Excerpt: The inventive compounds can readily be evaluated to determine activity at the CXCR3 receptors by known methods, such as, for example, development of a human CXCR3 (N-delta 4) Binding Assay.
Cloning and expression of human CXCR3 (N-delta 4):
The DNA encoding human CXCR3 was cloned by PCR using human genomic DNA (Promega, Madison, Wis.) as a template. The PCR primers were designed based on the published sequence of human orphan receptor GPR9 (1) with incorporated restriction sites, a Kozak consensus sequence, CD8 leader and Flag tag. The PCR product was subcloned into the mammalian expression vector pME18Sneo, a derivative of the SR-alpha expression vector (designated as pME18Sneo-hCXCR3 (N-delta 4).
IL-3-dependent mouse pro-B cells Ba/F3 were transfected by electroporation in 0.4 ml Dulbecco's PBS containing 4×10^6 cells with 20 μg of pME18Sneo-hCXCR3 (N-delta 4) plasmid DNA. Cells were pulsed at 400 Volts, 100 OHMs, 960 μFd. The transfected cells were under selection with 1 mg/ml G418 (Life Technologies, Gaithersburg, Md.). […] IP-10 (NEN Life Science Products, Boston, Mass.).
Preparation of Ba/F3-hCXCR3 (N-delta 4) membranes:
Ba/F3 cells expressing human CXCR3 (N-delta 4) were pelleted and resuspended in the lysis buffer containing 10 mM HEPES, pH 7.5 and Complete® protease inhibitors (1 tablet per 100 ml) (Boehringer Mannheim, Indianapolis, Ind.) at a cell density of 20×10^6 cells per ml. […] Large cellular debris was removed by centrifugation at 1,000×g. Cell membrane in the supernatant was sedimented at 100,000×g. The membrane was resuspended in the lysis buffer supplemented with 10% sucrose and stored at −80° C. Total protein concentration of the membrane was determined by BCA method from Pierce (Rockford, Ill.).
Human CXCR3 (N-delta 4) scintillation proximity assay (SPA):
The beads were spun down, washed once, resuspended in the binding buffer and transferred to a 96-well Isoplate (Wallac, Gaithersburg, Md.). […] IP-10 with tested compounds in a series of titration were added to start the reaction.

SMILES	IC50
O=C(NCc1ccc(F)c(F)c1)c1cnc(N2CCN(C3CCN(Cc4ccc([N+](=O)[O-])cc4)CC3)CC2)c(Cl)c1 [compound 268]	0.025 to 0.1 µM
CC[C@H]1CN(c2ncc(C(=O)NCCN)cc2Cl)CCN1C1CCN(Cc2ccc(Cl)cc2F)CC1 [compound 306]	0.025 to 0.1 µM
O=C(NCc1ccc(F)c(F)c1)c1cnc(N2CCN(C3CCN(Cc4ccc(Br)cc4)CC3)CC2)c(Cl)c1 [compound 267]	0.025 to 0.1 µM
O=C(NCc1ccc(C(F)(F)F)cc1)c1cnc(N2CCN(C3CCN(Cc4ccc(Br)cc4)CC3)CC2)c(Br)c1 [compound 325]	> 0.1 µM
C[C@H]1CN(c2ncc(C(=O)NCC3CCCCC3)cc2Cl)CCN1C1CCN(C(=O)c2ccc(C#N)cc2)CC1 [compound 335]	> 0.1 µM
CC[C@H]1CN(c2ncc(CNS(=O)(=O)CC(F)(F)F)cc2Cl)CCN1C1CCN(Cc2ccc(Cl)cc2F)CC1 [compound 416]	0.025 to 0.1 µM
CCNC(=O)OC(C)c1cnc(N2CCN(C3CCN(Cc4ccc(Cl)cc4F)CC3)[C@@H](CC)C2)c(Cl)c1 (stereo partly shown) [compound 434]	> 0.1 µM
CC[C@H]1CN(c2ncc(COC(=O)Nc3ccc(F)cc3)cc2Cl)CCN1C1CCN(Cc2ccc(Cl)cc2F)CC1 [compound 420]	0.025 to 0.1 µM
O=C(NCc1ccc(F)cc1F)c1cnc(N2CCN(C3CCN(Cc4ccc(Cl)cc4Cl)CC3)CC2)c(Cl)c1 [compound 10]	> 0.1 µM
COc1ccc(CN2CCC(N3CCN(c4ncc(C(=O)NCc5ccc(F)c(F)c5)cc4Br)CC3)CC2)cc1 [compound 280]	0.025 to 0.1 µM
O=C(NCc1ccc(Cl)cc1F)c1cnc(N2CCN(C3CCN(Cc4ccc([N+](=O)[O-])cc4)CC3)CC2)c(Cl)c1 [compound 155]	0.025 to 0.1 µM
O=C(NCc1cccc(F)c1)c1cnc(N2CCN(C3CCN(Cc4ccc(F)cc4F)CC3)CC2)c(Cl)c1 [compound 8]	> 0.1 µM
O=C(NCc1cccc(F)c1)c1cnc(N2CCN(C3CCN(Cc4ccc(F)c(F)c4)CC3)CC2)c(Cl)c1 [compound 91]	> 0.1 µM
CC[C@H]1CN(c2ncc(CNC(=O)Nc3ccc(F)c(F)c3)cc2Cl)CCN1C1CCN(Cc2ccc(Cl)cc2)CC1 [compound 400]	< 0.025 µM
C[C@@H]1CN(C2CCN(Cc3ccc(C#N)cc3)CC2)CCN1c1ncc(C(=O)NCc2ccc(Cl)c(Cl)c2)cc1Cl [compound 173]	> 0.1 µM
CC[C@H]1CN(c2ncc(C(C)O)cc2Cl)CCN1C1CCN(Cc2ccc(Cl)cc2F)CC1 (stereo partly shown) [compound 433]	> 0.1 µM
O=C(NCc1ccc(Br)cc1)c1cnc(N2CCN(C3CCN(Cc4ccc(F)cc4)CC3)CC2)c(Cl)c1 [compound 109]	0.025 to 0.1 µM
O=C(NCc1cccc(Cl)c1)c1cnc(N2CCN(C3CCN(Cc4ccc(Br)cc4)CC3)CC2)c(Cl)c1 [compound 43]	> 0.1 µM
COc1ccc(CN2CCC(N3CCN(c4ncc(C(=O)NCc5ccc(F)c(Cl)c5)cc4Cl)CC3)CC2)cc1 [compound 117]	0.025 to 0.1 µM
O=C(NCc1cccc(F)c1)c1cnc(N2CCN(C3CCN(Cc4ccc(Br)cc4F)CC3)CC2)c(Cl)c1 [compound 14]	> 0.1 µM
C[C@H]1CN(c2ncc(C(=O)NCc3ccc(F)c(F)c3)cc2Cl)CCN1C1CCN(Cc2ccc(Cl)cc2)CC1 [compound 226]	< 0.025 µM
CC[C@H]1CN(c2ncc(C(=O)OC)c(N)c2Cl)CCN1C1CCN(Cc2ccc(Cl)cc2F)CC1 [compound 441]	> 0.1 µM
O=C(NCc1ccccc1)c1cnc(N2CCN(C3CCN(Cc4ccc(F)cc4)CC3)CC2)c(Cl)c1 [compound 5]	> 0.1 µM
O=C(NCc1ccc(F)c(F)c1)c1cnc(N2CCN(C3CCN(Cc4ccc(Br)cc4F)CC3)CC2)c(Cl)c1 [compound 62]	> 0.1 µM
CCNC(=O)c1cnc(N2CCN(C3CCN(Cc4ccc(Cl)cc4F)CC3)[C@@H](CC)C2)c(Cl)c1 [compound 212]	< 0.025 µM
N#Cc1ccc(C(=O)N2CCC(N3CCN(c4ncc(C(=O)NCCOc5ccccc5)cc4Br)CC3)CC2)cc1 [compound 329]	> 0.1 µM
CCC(=O)c1cnc(N2CCN(C3CCN(Cc4ccc(Cl)cc4F)CC3)[C@@H](CC)C2)c(Cl)c1 [compound 411]	0.025 to 0.1 µM

SMILES	IC50
O=C(NCc1ccccc1)c1cnc(N2CCN(C3CCN(Cc4ccc(Cl)cc4)CC3)CC2)c(Cl)c1 [compound 72]	> 0.1 µM
CC(c1ccc(C#N)cc1)N1CCC(N2CCN(c3ncc(C(=O)NCc4ccc(Cl)c(Cl)c4)cc3Cl)CC2)CC1 (stereo not shown) [compound 32]	> 0.1 µM
O=C(NCc1ccc(C(F)(F)F)cc1)c1cnc(N2CCN(C3CCN(Cc4ccc(Cl)cc4)CC3)CC2)c(Br)c1 [compound 305]	0.025 to 0.1 µM
C[C@@H]1CN(c2ncc(C(=O)NCc3ccc(F)c(F)c3)cc2Cl)CCN1C1CCN(Cc2ccc(C#N)cc2)CC1 [compound 270]	0.025 to 0.1 µM
CCOCc1cnc(N2CCN(C3CCN(Cc4ccc(Cl)cc4F)CC3)[C@@H](CC)C2)c(Cl)c1 [compound 424]	0.025 to 0.1 µM
CCNC(=O)N(CC)Cc1cnc(N2CCN(C3CCN(Cc4ccc(Cl)cc4F)CC3)[C@@H](CC)C2)c(Cl)c1 [compound 409]	0.025 to 0.1 µM
N#Cc1ccc(CN2CCC(N3CCN(c4ncc(C(=O)NCc5ccc(F)c(F)c5)cc4Cl)CC3)CC2)cc1 [compound 129]	0.025 to 0.1 µM
CCNC(=O)c1cnc(N2CCN(C3CCN(Cc4ccc(Cl)cc4)CC3)[C@@H](C(C)C)C2)c(Cl)c1 [compound 210]	< 0.025 µM
CNC(=O)c1cnc(N2C[C@H](C)N(C3CCN(Cc4ccc(Cl)cc4F)CC3)C[C@H]2C)c(Cl)c1 [compound 352]	> 0.1 µM
CNC(=O)c1cnc(N2CCN(C3CCN(Cc4ccc(F)cc4Cl)CC3)[C@@H](C)C2)c(Cl)c1 [compound 299]	0.025 to 0.1 µM
O=C(NC1CCCCC1)c1cnc(N2CCN(C3CCN(Cc4ccc(Cl)cc4)CC3)CC2)c(Cl)c1 [compound 191]	> 0.1 µM
CCNC(=O)c1cnc(N2CCN(C3CCN(C(=O)c4ccc(Cl)cc4)CC3)C(CC(F)(F)F)C2)c(Cl)c1 (stereo not shown) [compound 309]	0.025 to 0.1 µM
CNC(=O)c1cnc(N2CCN(C3CCN(Cc4ccc(C)cc4)CC3)[C@@H](C)C2)c(Cl)c1 [compound 320]	0.025 to 0.1 µM
C[C@@H]1CN(C2CCN(Cc3ccc([N+](=O)[O-])cc3)CC2)CCN1c1ncc(C(=O)NCc2ccc(Cl)c(Cl)c2)cc1Cl [compound 174]	0.025 to 0.1 µM
O=C(NCc1ccc(Cl)cc1)c1cnc(N2CCN(C3CCN(Cc4ccc(Cl)cc4)CC3)CC2)c(Cl)c1 [compound 288]	0.025 to 0.1 µM
CC[C@H]1CN(c2ncc(C(=O)NC)cc2Cl)CCN1C1CCN(Cc2ccc(Cl)cc2F)CC1 [compound 224]	< 0.025 µM
CNC(=O)c1cnc(N2CCN(C3CCN([C@H](C)c4ccc(Cl)cc4)CC3)[C@@H](C)C2)c(Cl)c1 [compound 232]	< 0.025 µM
COc1ccc(CN2CCC(N3CCN(c4ncc(C(=O)NCc5cc(Cl)cc(Cl)c5)cc4Cl)CC3)CC2)cc1 [compound 44]	> 0.1 µM
CCNC(=O)OCc1cnc(N2CCN(C3CCN(Cc4ccc(Cl)cc4F)CC3)[C@@H](CC)C2)c(Cl)c1 [compound 382]	< 0.025 µM
O=C(NCc1ccc(F)cc1F)c1cnc(N2CCN(C3CCN(Cc4ccc([N+](=O)[O-])cc4)CC3)CC2)c(Cl)c1 [compound 128]	0.025 to 0.1 µM
O=C(NCCOc1ccccc1)c1cnc(N2CCN(C3CCN(Cc4ccc(OC(F)(F)F)cc4)CC3)CC2)c(Cl)c1 [compound 169]	> 0.1 µM
O=C(NCc1ccc(F)c(F)c1)c1cnc(N2CCN(C3CCN(Cc4ccc(Br)cc4)CC3)CC2)c(Br)c1 [compound 265]	< 0.025 µM
Cc1ccc(CN2CCC(N3CCN(c4ncc(C(=O)NCc5ccc(Cl)c(Cl)c5)cc4Cl)CC3)CC2)cc1 [compound 183]	> 0.1 µM
CC[C@H]1CN(c2ncc(CN)cc2Cl)CCN1C1CCN(Cc2ccc(Cl)cc2)CC1 [compound 413]	0.025 to 0.1 µM
O=C(NCCOc1ccccc1)c1cnc(N2CCN(C3CCN(Cc4ccc(F)cc4)CC3)CC2)c(Cl)c1 [compound 60]	> 0.1 µM
N#Cc1ccc(CN2CCC(N3CCN(c4ncc(C(=O)NCCOc5ccccc5)cc4Cl)CC3)CC2)cc1 [compound 338]	> 0.1 µM
C[C@H]1CN(c2ncc(C(=O)NCc3ccc(Cl)c(Cl)c3)cc2Cl)CCN1C1CCN(C(=O)c2ccc(C#N)cc2)CC1 [compound 319]	0.025 to 0.1 µM

same assay, conditions: value given in text as example

SMILES	IC50
CCNC(=O)c1cnc(N2CCN(C3CCN(Cc4ccc(Cl)cc4F)CC3)[C@@H](CC)C2)c(Cl)c1 [compound 212]	0.0002 µM
